Read-outs that look alike come from different tables or passages of the source.
Key:
[1] = system: TG2:gluten complexes uptake by TG2-specific B cells (A20, BCR 679-14-E06); test: Inhibition by primary amines of TG2:gluten complex uptake by TG2-specific B cells, flow cytometry; type: cell-based, Murine A20 B lymphoma; recombinant human TG2; settings: for IC50: B-cell
Description: (§1) Murine A20 B lymphoma cells engineered to express either the celiac patient‐derived TG2‐specific BCR 679‐14‐E06 or the non‐TG2‐specific BCR 693‐2‐F02 as human IgD are previously described. For B‐cell/T‐cell collaboration assays, we used A20 BCR transfectants also transduced to express HLA‐DQ2.5 [27]. Murine BW58α^–β^– cells were retrovirally transduced to express human CD4 as well as the celiac patient‐derived gluten‐specific TCR from a DQ2.5‐glia‐γ1‐reactive T‐cell clone (TCC 4.32) as previously described. The generation of TCR transfectants expressing DQ2.5‐glia‐α2‐reactive TCR (TCC 364.14) and DQ2.5‐glia‐ω2‐reactive TCR (clone 737.30) have been described previously.
B‐cell uptake of gluten peptides was measured essentially as previously described. The following 9‐mer peptides were compared: FITC‐α2, FITC‐ω2, FITC‐γ1, and FITC‐γ3. In brief, A20 cells (300 000/well) expressing TG2‐specific (679‐14‐E06) or non‐TG2 specific BCR (693‐2‐F02) were incubated with recombinant TG2 (final 3 µg/mL), 5 µM FITC peptide, and 2 mM CaCl2 in RPMI at a final volume of 50 µL. Following incubation at 37°C, the TG2 enzymatic activity was quenched by the addition of 100 µL 2 mM EDTA/RPMI at specific timepoints. Cells were washed, fixed in 2% methanol‐free formaldehyde (Invitrogen), resuspended in 2% fetal calf serum (FCS)/PBS, and analyzed by flow cytometry (Attune NxT Flow Cytometer, Thermo Scientific). For each peptide, a delta MFI was calculated by subtracting MFI from non‐TG2 specific A20 cell (unspecific binding) from MFI of TG2‐specific A20 cells. Delta MFI was normalized for each experiment by dividing by the highest delta value per experiment. To assess the contribution and uptake of isopeptide‐linked TG2:gluten complexes, TG2 (3 µg/mL) and FITC‐labelled peptides (5 µM) were preincubated in RPMI with 2 mM CaCl2 at 37°C for 30 min before addition of A20 cells followed by 30 min incubation at 37°C. To examine the effect of TG2 secondary substrates on peptide uptake, the primary amines spermine (Sigma–Aldrich) and biotinylated cadaverine (5‐biotinamido‐pentylamine; 5‐BP, Pierce) were added to the reaction mixture (0.1–1000 µM final concentration), followed by 10 min incubation at 37°C and flow cytometry analysis. The dose‐response curve fitting to find IC50 was done using the “[Inhibitor] vs. response” equation in GraphPad Prism 8.3.0. Of note, the presence of Lysine HCl in RPMI medium represents an experimental constant in our assays that is not accounted for when calculating the competitive effect of amine.

[2] = system: TCR-transfectant cells specific for DQ2.5-glia-α2; test: Inhibition by primary amines of activation of DQ2.5-glia-α2-specific T cells by TG2-specific B cells, IL-2 ELISA; type: cell-based; settings: for IC50: 5 µM N-α-gliadin 33-mer, TG2, CaCl2, amine 0-1000 µM, IL-2 ELISA
Description: as §1
The B‐cell/T‐cell collaboration assays were set up as previously described. To compare the uptake and presentation of different gluten peptides to T cells, A20 cells (5 mill/mL) expressing the TG2‐specific BCR (679‐14‐E06) and HLA DQ2.5 were incubated with recombinant TG2 (final 3 µg/mL) and varying amounts of N‐α‐gliadin 20‐mer, N‐ω‐gliadin 19‐mer, or N‐γ‐gliadin 21‐mer in RPMI supplemented with 2 mM CaCl2. After a 30 min incubation at 37°C the cells were washed with 1% FCS/RPMI and resuspended in 5% FCS/RPMI to give a final 1.5 million cells/mL (150 000/well) followed by 2 h incubation at 37°C. Next, TCR‐transfectant cells specific for either DQ2.5‐glia‐α2, DQ2.5‐glia‐ω2, or DQ2.5‐glia‐γ1 were added (25 000/well), followed by overnight incubation at 37°C. The next day, IL‐2 concentration was measured in the culture supernatant by ELISA as previously described. The responsiveness of different TCR transfectants was assessed in the same way, but without the 30 min incubation with TG2, and using the synthetic deamidated peptides (D‐α‐gliadin 20‐mer, D‐ω‐gliadin 17‐mer, and D‐γ‐gliadin 21‐mer). To assess how TG2 secondary substrate affects peptide uptake and presentation to T cells, TG2‐specific A20 cells expressing DQ2.5 were incubated with TG2, CaCl2, 5 µM N‐ω‐gliadin 34‐mer, or 5 µM N‐α‐gliadin 33‐mer in the presence of primary amines at increasing concentrations (0‐1000 µM), before the addition of TCR‐transfectant cells specific for the DQ2.5‐glia‐α2 or DQ2.5‐glia‐ω2 epitopes. The dose‐response curve fitting to find IC50 was done using the “[Inhibitor] vs. response” equation in GraphPad Prism 8.3.0. To examine whether primary amines directly affect the B cells, TG2‐specific A20 cell expressing DQ2.5 were incubated with primary amines for 30 min and washed, before addition of 2 µM D‐ω‐gliadin 34‐mer, followed by incubation with DQ2.5‐glia‐ω2 TCR transfectants.

[3] = logIC50, inhibition of FITC-α2 uptake, Figure 4
[4] = logIC50, inhibition of FITC-α2 uptake, mean
[5] = logIC50, inhibition of FITC-α2 uptake, replicate Figure S4 A
[6] = logIC50, inhibition of FITC-α2 uptake, replicate Figure S4 B
[7] = logIC50, inhibition of FITC-γ1 uptake, Figure 4
[8] = logIC50, inhibition of FITC-γ1 uptake, mean
[9] = logIC50, inhibition of FITC-γ1 uptake, replicate Figure S4 C
[10] = logIC50, inhibition of FITC-ω2 uptake, Figure 4
[11] = logIC50, inhibition of FITC-ω2 uptake, mean
[12] = logIC50, inhibition of FITC-ω2 uptake, replicate Figure S4 A
[13] = DQ2.5-glia-α2, replicate Figure S5A
[14] = DQ2.5-glia-α2, replicate Figure S5B
[15] = logIC50, DQ2.5-glia-α2, Figure 5
[16] = logIC50, DQ2.5-glia-α2, replicate Figure S5A
[17] = logIC50, DQ2.5-glia-α2, replicate Figure S5B

Which IC50 ([1]; 10 min, inhibition of FITC-α2 (5 µM) uptake, TG2 3 µg/mL, 2 mM CaCl2, RPMI, 37°C 10 min, Figure 4, read-out: IC50) does the source give for `NCCCNCCCCNCCCN` [spermine] here?
Its IC50 is 29.3 µM.

And the IC50 ([1]; 10 min, inhibition of FITC-α2 (5 µM) uptake, TG2 3 µg/mL, 2 mM CaCl2, RPMI, 37°C 10 min, mean, read-out: IC50)?
Its IC50 is 66.1 µM.

What about the IC50 ([1]; 10 min, inhibition of FITC-α2 (5 µM) uptake, TG2 3 µg/mL, 2 mM CaCl2, RPMI, 37°C 10 min, replicate Figure S4 A, read-out: IC50) of the same compound?
Its IC50 is 47.6 µM.

What about the IC50 ([1]; 10 min, inhibition of FITC-α2 (5 µM) uptake, TG2 3 µg/mL, 2 mM CaCl2, RPMI, 37°C 10 min, replicate Figure S4 B, read-out: IC50) of the same compound?
The IC50 was 121 µM.

What about the IC50 ([1]; 10 min, inhibition of FITC-γ1 (5 µM) uptake, TG2 3 µg/mL, 2 mM CaCl2, RPMI, 37°C 10 min, Figure 4, read-out: IC50) of the same compound?
The IC50 was 45.3 µM.

And the IC50 ([1]; 10 min, inhibition of FITC-γ1 (5 µM) uptake, TG2 3 µg/mL, 2 mM CaCl2, RPMI, 37°C 10 min, mean, read-out: IC50)?
The IC50 was 31.9 µM.

And the IC50 ([1]; 10 min, inhibition of FITC-γ1 (5 µM) uptake, TG2 3 µg/mL, 2 mM CaCl2, RPMI, 37°C 10 min, replicate Figure S4 C, read-out: IC50)?
Its IC50 is 18.7 µM.

And the IC50 ([1]; 10 min, inhibition of FITC-ω2 (5 µM) uptake, TG2 3 µg/mL, 2 mM CaCl2, RPMI, 37°C 10 min, Figure 4, read-out: IC50)?
Its IC50 is 14 µM.

And the IC50 ([1]; 10 min, inhibition of FITC-ω2 (5 µM) uptake, TG2 3 µg/mL, 2 mM CaCl2, RPMI, 37°C 10 min, mean (spermine: Figure S4 B not included), read-out: IC50)?
Its IC50 is 26.1 µM.

And the IC50 ([1]; 10 min, inhibition of FITC-ω2 (5 µM) uptake, TG2 3 µg/mL, 2 mM CaCl2, RPMI, 37°C 10 min, replicate Figure S4 A, read-out: IC50)?
Its IC50 is 38.2 µM.

And the IC50 ([1]; FITC 9-mer native gluten peptides, average IC50 values, Table S1, read-out: IC50, inhibition of FITC-9-mer peptide uptake (average values))?
The IC50 was 26 to 72 µM.

What about the “inhibition of FITC-9-mer uptake, in words” value ([1]; TG2 3 µg/mL, FITC peptide 5 µM, 2 mM CaCl2, 37°C 10 min, Figure 4, Figure S4) of the same compound?
Its value is “effectively inhibited uptake”.

What about the logIC50 ([1]; inhibition of FITC-α2 uptake, Figure 4) of the same compound?
The logIC50 was 1.47.

What about the logIC50 ([1]; inhibition of FITC-α2 uptake, mean) of the same compound?
Its logIC50 is 1.74.

And the logIC50 ([1]; inhibition of FITC-α2 uptake, replicate Figure S4 A)?
Its logIC50 is 1.68.

What about the logIC50 ([1]; inhibition of FITC-α2 uptake, replicate Figure S4 B) of the same compound?
The logIC50 was 2.08.

And the logIC50 ([1]; inhibition of FITC-γ1 uptake, Figure 4)?
The logIC50 was 1.66.

And the logIC50 ([1]; inhibition of FITC-γ1 uptake, mean)?
Its logIC50 is 1.46.

What about the logIC50 ([1]; inhibition of FITC-γ1 uptake, replicate Figure S4 C) of the same compound?
Its logIC50 is 1.27.

And the logIC50 ([1]; inhibition of FITC-ω2 uptake, Figure 4)?
Its logIC50 is 1.15.

What about the logIC50 ([1]; inhibition of FITC-ω2 uptake, mean) of the same compound?
The logIC50 was 1.36.

What about the logIC50 ([1]; inhibition of FITC-ω2 uptake, replicate Figure S4 A) of the same compound?
The logIC50 was 1.58.

And the logIC50 ([1]; inhibition of FITC-ω2 uptake, replicate Figure S4 B)?
Its logIC50 is 16.4.

And the “log 95% CI lower limit” value [1, 3]?
Its value is 0.911.

What about the “log 95% CI upper limit” value [1, 3] of the same compound?
Its value is 2.19.

What about the “log 95% CI lower limit” value [1, 4] of the same compound?
Its value is 1.31.

What about the “log 95% CI upper limit” value [1, 4] of the same compound?
Its value is 2.23.

What about the “log 95% CI lower limit” value [1, 5] of the same compound?
Its value is 1.49.

What about the “log 95% CI upper limit” value [1, 5] of the same compound?
Its value is 1.864.

What about the “log 95% CI lower limit” value [1, 6] of the same compound?
Its value is 1.53.

And the “log 95% CI upper limit” value [1, 6]?
The value was 2.63.

And the “log 95% CI lower limit” value [1, 7]?
Its value is 1.20.

What about the “log 95% CI upper limit” value [1, 7] of the same compound?
Its value is 2.08.

And the “log 95% CI lower limit” value [1, 8]?
The value was 1.02.

What about the “log 95% CI upper limit” value [1, 8] of the same compound?
The value was 2.0.

What about the “log 95% CI lower limit” value [1, 9] of the same compound?
Its value is 0.84.

And the “log 95% CI upper limit” value [1, 9]?
Its value is 1.92.

And the “log 95% CI lower limit” value [1, 10]?
Its value is 0.93.

What about the “log 95% CI upper limit” value [1, 10] of the same compound?
The value was 1.39.

And the “log 95% CI lower limit” value [1, 11]?
The value was 1.16.

And the “log 95% CI upper limit” value [1, 11]?
Its value is 1.59.

What about the “log 95% CI lower limit” value [1, 12] of the same compound?
The value was 1.38.

What about the “log 95% CI upper limit” value [1, 12] of the same compound?
Its value is 1.79.

And the IC50 ([2]; DQ2.5-glia-α2, Figure 5)?
Its IC50 is 77.3 µM.

And the IC50 ([2]; DQ2.5-glia-α2, mean)?
Its IC50 is 58 µM.

And the IC50 [2, 13]?
The IC50 was 17.7 µM.

What about the IC50 [2, 14] of the same compound?
Its IC50 is 78.9 µM.

What about the logIC50 ([2]; DQ2.5-glia-α2, Figure 5) of the same compound?
The logIC50 was 1.89.

And the logIC50 ([2]; DQ2.5-glia-α2, mean)?
Its logIC50 is 1.68.

What about the logIC50 [2, 13] of the same compound?
Its logIC50 is 1.25.

What about the logIC50 [2, 14] of the same compound?
Its logIC50 is 1.90.

And the “log 95% CI lower limit” value [2, 15]?
The value was 1.53.

What about the “log 95% CI upper limit” value [2, 15] of the same compound?
Its value is 2.27.

What about the “log 95% CI lower limit” value ([2]; logIC50, DQ2.5-glia-α2, mean) of the same compound?
Its value is 1.25.

And the “log 95% CI upper limit” value ([2]; logIC50, DQ2.5-glia-α2, mean)?
Its value is 2.11.

And the “log 95% CI lower limit” value [2, 16]?
The value was 0.638.

What about the “log 95% CI upper limit” value [2, 16] of the same compound?
The value was 1.83.

What about the “log 95% CI lower limit” value [2, 17] of the same compound?
Its value is 1.59.

And the “log 95% CI upper limit” value [2, 17]?
The value was 2.22.

From publication PMC9545004, “Transglutaminase 2 affinity and enzyme‐substrate intermediate stability as determining factors for T‐cell responses to gluten peptides in celiac disease” (European Journal of Immunology, 2022)
